According to patent US5932580A, “PDGF receptor kinase inhibitory compounds their preparation and compositions” (priority 1997, dated 1999):
Entries after “also recorded” stand apart in the source; their conditions may differ. Where two headings read alike, the source gives them in different places.

Columns and labels:
[1] = test system: neointimal formation; conditions: controlled local delivery; rat carotid balloon injury model; cited from earlier work
[2] = biological target: T1, PDGF β-receptor (Sus scrofa, UniProt F1RL75); assay: PDGF induced PDGFR autophosphorylation in intact SMC cells; format: cell-based; conditions: porcine arterial SMC
T1 construct: PDGF-BB stimulated; immunoprecipitated with PDGF beta-receptor specific antiserum R3
T1 sequence (F1RL75 109-1181): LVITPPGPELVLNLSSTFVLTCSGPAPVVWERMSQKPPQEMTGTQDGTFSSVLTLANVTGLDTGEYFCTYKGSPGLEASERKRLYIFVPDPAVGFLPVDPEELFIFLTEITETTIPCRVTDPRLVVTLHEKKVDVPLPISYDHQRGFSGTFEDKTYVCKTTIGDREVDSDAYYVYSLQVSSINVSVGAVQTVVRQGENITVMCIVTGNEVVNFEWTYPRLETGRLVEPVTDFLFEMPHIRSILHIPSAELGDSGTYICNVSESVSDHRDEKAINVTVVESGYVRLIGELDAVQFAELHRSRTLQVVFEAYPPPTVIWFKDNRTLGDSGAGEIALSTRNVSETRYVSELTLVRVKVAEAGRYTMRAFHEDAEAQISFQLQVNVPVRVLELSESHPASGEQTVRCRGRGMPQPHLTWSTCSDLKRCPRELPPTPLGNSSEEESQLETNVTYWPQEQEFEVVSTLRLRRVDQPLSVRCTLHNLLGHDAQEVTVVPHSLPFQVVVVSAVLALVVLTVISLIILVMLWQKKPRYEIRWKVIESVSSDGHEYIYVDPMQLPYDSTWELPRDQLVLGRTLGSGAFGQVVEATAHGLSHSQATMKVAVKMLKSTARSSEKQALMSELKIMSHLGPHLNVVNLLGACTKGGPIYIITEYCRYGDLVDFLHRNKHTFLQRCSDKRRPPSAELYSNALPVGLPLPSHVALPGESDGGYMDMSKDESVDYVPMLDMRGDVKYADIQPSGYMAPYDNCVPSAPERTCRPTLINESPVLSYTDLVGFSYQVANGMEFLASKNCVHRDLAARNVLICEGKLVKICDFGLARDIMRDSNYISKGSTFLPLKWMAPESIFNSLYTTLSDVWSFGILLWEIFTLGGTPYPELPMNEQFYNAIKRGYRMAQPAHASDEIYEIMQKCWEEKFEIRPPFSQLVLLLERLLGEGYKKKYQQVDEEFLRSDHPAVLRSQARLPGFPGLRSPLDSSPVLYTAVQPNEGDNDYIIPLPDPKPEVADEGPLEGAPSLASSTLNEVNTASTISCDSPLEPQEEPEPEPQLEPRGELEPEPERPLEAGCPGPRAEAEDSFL
Description: Effect of tyrphostins on PDGF induced PDGFR autophosphorylation in intact SMC cells: Subconfluent porcine arterial smooth muscle cells, cultivated in Dulbecco's modified Eagle's medium (DMEM) supplemented with 15% fetal calf serum (FCS), were synchronized for 20 hours in a medium containing 2% FCS. […] After stimulation, the cells were solubilized in Nonidet P-40 (1%) containing lysis buffer.
The analysis of PDGF p-receptor phosphorylation was performed as follows. Cell lysates were subjected to immunoprecipitation using the PDGF β-receptor specific antiserum R3 [5]. The percipitates were subjected to polyacrylamide (7.5%) gel electrophoresis in presence of sodium deducyl sulfate (SDS-PAGE) and were thereafter blotted onto a nitrocellulose membrane (Hybond C-EXTRA, Amersham). Phosphorylated proteins were detected by immunoblotting using the horseradish-peroxidase conjugated phosphotyrosine antibody RC20H (Transduction Laboratories), followed by chemoluminescence-based detection (ECL, Amersham) and autoradiography.
Detection of receptor proteins was performed as follows. Cell lysates were subjected to immunoprecipitation using the PDGF β-receptor specific antiserum R3 [5], as described above, and the percipitates washed three times and thereafter subjected to SDS-PAGE (7.5%) and blotting onto a nitrocellulose membrane (Hybond C-EXTRA, Amersham). Receptor proteins were detected by immunoblotting using the horseradish-peroxidase conjugated donkey anti-rabbit antibody (Amersham), followed by chemoluminescence-based detection (ECL, Amersham) and autoradiography.

[3] = test system: human internal mammary artery smooth muscle cells (IMA SMC); assay: Inhibition of cell proliferation and recovery, human IMA SMC; format: cell-based
Text: (§1) Smooth muscle cells (SMC) were obtained under aseptic conditions from porcine abdominal aortas, and human internal mammary arteries (IMA). Specimens from the operating room were transferred on ice to the tissue culture room. Each artery was cut open and the endothelial surface mechanically scraped. The vessels were then cut into 2 mm^2 fragments which were placed in culture dishes with Dulbecco's modified Eagle's medium (DMEM) supplemented with 15% (v/v) fetal calf serum (FCS), 100 u/ml penicillin, 100 μg/ml streptomycin, and 0.2M L-glutamine. The tissue fragments were then placed in an incubator at 37° C. under 9% CO2 atmosphere until SMC outgrowth was detected (typically within 3-7 days). […] For experiments testing the effect of tyrphostins on growth inhibition and recovery (see below), SMC from passages 1-3 were replated in 15 mm wells pretreated with 3 μg/cm^2 fibronectin (Biological Industries, Kibbutz Beit Haemek, Israel) at 15,000 cells/well.
Inhibition of cell proliferation and recovery: Monolayer cell growth inhibition and recovery experiments were repeated 3 or 4 times. Each experiment was performed in triplicate. Approximately 15,000 cells (SMC or EC) in 1 ml of culture medium supplemented with 15% FCS were seeded on day 0 in 15 mm-wells precoated with fibronectin. Cultures were treated with a tyrphostin (10 μM) dissolved in 0.1% DMSO on days 1 and 3. On day 6, cultures were washed and the cells allowed to recover. Typically cells were counted on days 3 and 5 for inhibition, and on days 7, 10 and 15 for recovery, other schedules were also employed as reported below. The medium supplemented with serum (M-199 with ECGS for EC, and DMEM for SMC) was changed every other day throughout the experiment.
FIG. 9 presents the maximal inhibitory and recovery effects on human IMA SMC growth inflicted by 10 or 25 μM of AG1851 and AG1295. Cells were grown in the presence of the specified tyrphostins and were counted after seven days in culture. On day 7 the cultures were washed and the cells allowed to recover. Seven days later they were counted for recovery. The bar graph show the maximal inhibition and the recovery in each experiment and for controls.

[4] = test system: epidermal growth factor receptor; conditions: cited from earlier work
[5] = test system: DNA synthesis stimulated by insulin, by epidermal growth factor, or by a combination of both; conditions: cited from earlier work
[6] = test system: Swiss 3T3 cells; conditions: read-out: 50% inhibitory concentration, PDGF receptor kinase and PDGF dependent DNA synthesis; cited from earlier work
[7] = test system: porcine endothelial cells (EC); assay: Inhibition of cell proliferation and recovery, porcine EC; format: cell-based; conditions: for inhibition at 10 µM: Sus scrofa, Endothelial cell
Text: Endothelial cells (EC) were isolated from porcine carotid arteries. Using aseptic procedure, both common carotid arteries were isolated, and the distal end of each artery was cannulated through an arteriotomy and ligated. The arteries were then perfused with phosphate buffered saline (PBS) and the proximal end ligated isolating a 5-7 cm long blood-free portion of the artery. The isolated portion of each artery was filled with PBS containing calcium and magnesium and 0.1% collagenase (Boehringer Manneheim, Germany). The segments were excised and incubated for 10 min at 37° C. in sterile bottles containing PBS. […] Cells were seeded on fibronectin-coated dishes at a seeding density of 15,000 cells/well and incubated at 37° C. in 9% CO2. ECGS (25 μg/ml) was added every other day until confluence was observed, typically within 6-8 days.
(§2) Inhibition of cell proliferation and recovery: Monolayer cell growth inhibition and recovery experiments were repeated 3 or 4 times. Each experiment was performed in triplicate. […] Cultures were treated with a tyrphostin (10 μM) dissolved in 0.1% DMSO on days 1 and 3. On day 6, cultures were washed and the cells allowed to recover. Typically cells were counted on days 3 and 5 for inhibition, and on days 7, 10 and 15 for recovery, other schedules were also employed as reported below.

[8] = test system: porcine aorta endothelial cells (EC); conditions: read-out: 50% inhibitory concentration, PDGF receptor kinase and PDGF dependent DNA synthesis; cited from earlier work
[9] = test system: porcine aortic smooth muscle cells (SMC); assay: Inhibition of cell proliferation and recovery, porcine SMC; format: cell-based; conditions: for inhibition at 10 µM: Sus scrofa
Description: as §1, with “The vessels were then cut into 2 mm^2 fragments which were placed in culture dishes with Dulbecco's modified Eagle's medium (DMEM) supplemented with 15% (v/v) fetal calf serum (FCS), 100 u/ml penicillin, 100 μg/ml streptomycin, and 0.2M L-glutamine.” left out
as §2

[10] = test system: fibroblast growth factor-dependent DNA synthesis; conditions: relative to PDGF dependent DNA synthesis; cited from earlier work
[11] = test system: human PDGF α-receptor; conditions: cited from earlier work
[12] = test system: human PDGF β-receptor; conditions: cited from earlier work
[13] = test system: sis-transfected NIH 3T3 cells; conditions: cited from earlier work
[14] = test system: porcine aortic endothelial cells; conditions: cited from earlier work
[15] = test system: src-transformed NIH 3T3 cells; conditions: cited from earlier work
[16] = test system: stem cell factor receptor (c-Kit); conditions: cited from earlier work
[17] = test system: p60c-src(F527); conditions: cited from earlier work
[18] = test system: vascular endothelial growth factor receptor KDR; conditions: cited from earlier work

CC(C)(C)c1cc(C=C(C#N)C#N)cc(C(C)(C)C)c1O [AG17]
inhibition of neointimal formation [1]: effectively inhibits neointimal formation

Cc1cc2ncc(-c3ccccc3)nc2cc1C [AG1295, reference compound]
level of PDGF β-receptor protein present in the cells [2]: without affecting the level | inhibition of PDGF-BB induced PDGF β-receptor tyrosine-phosphorylation ([2]; tyrphostin 10 μM, 60 min preincubation, PDGF-BB 100 ng/ml): completely inhibited | reversibility of the effect on IMA SMC upon removal of the tyrphostin ([3]; 25 μM): completely reversible | inhibition at 25 µM ([3]; Homo sapiens, 120 h, read-out: mean reduction / inhibition of IMA SMC proliferation compared to untreated or DMSO-treated cells): 48% | effect on epidermal growth factor receptor autophosphorylation [4]: no effect | effect on DNA synthesis stimulated by insulin, by epidermal growth factor, or by a combination of both [5]: weak effects | IC50 [6]: < 5 µM | reversibility of the inhibitory effect on EC [7]: completely reversible | inhibition at 10 µM ([7]; 72 h, by day 3, read-out: mean reduction of EC growth compared to controls): ~10% | inhibition at 10 µM ([7]; 120 h, by day 5, read-out: reduction of EC growth compared to controls): 13.5% | inhibition at 10 µM ([7]; FIG. 8 experiment, 10 μM, read-out: maximal inhibitory effect on porcine EC proliferation): 22% | IC50 [8]: < 1 µM | inhibitory effect on porcine SMC growth (in words) ([9]; 10 μM, FIGS. 3-7): very potent growth inhibition effect; also recorded: highly effective in blocking proliferation; also recorded: very effective proliferation inhibitors | toxicity on SMC ([9]; 10 μM, porcine SMC): low lasting toxicity | inhibition at 10 µM ([9]; 72 h, read-out: mean reduction in SMC count compared to DMSO treated control cells, 10 μM, by day 3): 46% | inhibition at 10 µM ([9]; 120 h, read-out: reduction in SMC count / inhibition of SMC growth over control, 10 μM, by day 5 (day given for AG1295 and AG1992)): 78% | inhibition at 10 µM ([9]; read-out: maximal inhibitory effect on porcine SMC proliferation, FIG. 6 experiment, 10 μM): 65% | inhibition at 10 µM ([9]; read-out: maximal inhibitory effect on porcine SMC proliferation, FIG. 7 experiment, 10 μM): 81% | inhibition at 10 µM ([9]; read-out: mean reduction in SMC count compared to control cells (maximal inhibition in SMC growth), Table 2, 10 μM): 78% | reversibility of the inhibitory effect / recovery of SMC growth after washout ([9]; porcine SMC, cultures washed, cells allowed to recover): completely reversible | blocking effect on fibroblast growth factor-dependent DNA synthesis [10]: over an order of magnitude weaker blocking effect

COc1cc2ncc(-c3ccccc3)nc2cc1OC [AG1296]
inhibition of signalling of human PDGF α-receptor [11]: potently inhibits | effect on epidermal growth factor receptor autophosphorylation [4]: no effect | effect on DNA synthesis stimulated by insulin, by epidermal growth factor, or by a combination of both [5]: weak effects | IC50 [6]: < 5 µM | inhibition of signalling of human PDGF β-receptor [12]: potently inhibits | effect on transformed phenotype of sis-transfected NIH 3T3 cells [13]: reverses the transformed phenotype | effect on DNA synthesis induced by vascular endothelial growth factor [14]: no effect | effect on src-transformed NIH 3T3 cells [15]: no effect | IC50 [8]: < 1 µM | inhibition of signalling of stem cell factor receptor (c-Kit) [16]: potently inhibits | effect on activity of the kinase p60c-src(F527) immunoprecipitated from src-transformed NIH 3T3 cells [17]: no effect | blocking effect on fibroblast growth factor-dependent DNA synthesis [10]: over an order of magnitude weaker blocking effect | effect on autophosphorylation of KDR [18]: no effect
